Values of other authors in US20050215536A1, “Sequential SPRM/ progestin treatment” (priority 2004, published 2005).

Legend:
progesterone receptor = biological target: T1, progesterone receptor (Oryctolagus cuniculus, UniProt P06186); settings: for agonist activity in the McPhail bioassay: rabbits; for McPhail score: rabbit model, scale of 0-4
T1 construct: SPRMs score lower than progesterone in the McPhail bioassay in rabbits; from tissue; host or cells: live rabbit
T1 sequence (P06186 1-930): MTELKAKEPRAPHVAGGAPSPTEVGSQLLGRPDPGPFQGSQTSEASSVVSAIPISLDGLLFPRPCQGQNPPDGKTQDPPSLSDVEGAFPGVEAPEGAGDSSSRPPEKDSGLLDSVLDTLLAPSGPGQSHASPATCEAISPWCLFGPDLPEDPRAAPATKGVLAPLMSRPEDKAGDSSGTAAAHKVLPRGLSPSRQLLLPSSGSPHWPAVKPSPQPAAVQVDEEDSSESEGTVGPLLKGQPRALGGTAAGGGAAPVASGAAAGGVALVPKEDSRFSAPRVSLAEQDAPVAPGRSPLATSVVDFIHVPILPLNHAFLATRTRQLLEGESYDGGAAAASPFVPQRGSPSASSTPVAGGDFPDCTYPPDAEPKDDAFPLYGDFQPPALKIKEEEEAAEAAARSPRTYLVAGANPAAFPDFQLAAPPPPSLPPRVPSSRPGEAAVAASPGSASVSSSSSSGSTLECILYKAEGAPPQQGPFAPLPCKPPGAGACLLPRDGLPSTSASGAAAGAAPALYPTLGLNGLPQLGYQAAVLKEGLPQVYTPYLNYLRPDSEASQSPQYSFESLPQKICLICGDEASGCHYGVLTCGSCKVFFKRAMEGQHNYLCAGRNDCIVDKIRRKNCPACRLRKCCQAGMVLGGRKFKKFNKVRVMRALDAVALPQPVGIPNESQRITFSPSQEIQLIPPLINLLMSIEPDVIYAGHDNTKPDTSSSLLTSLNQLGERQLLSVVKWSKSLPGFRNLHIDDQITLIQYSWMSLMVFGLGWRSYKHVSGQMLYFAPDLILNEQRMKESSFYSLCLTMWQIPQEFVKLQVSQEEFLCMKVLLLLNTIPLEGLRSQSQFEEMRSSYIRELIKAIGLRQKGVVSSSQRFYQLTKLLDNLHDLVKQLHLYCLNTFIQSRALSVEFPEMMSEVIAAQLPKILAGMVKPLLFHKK

[1] = premenopausal women

Structure (SMILES)	agonist activity in the McPhail bioassay (progesterone receptor)	McPhail score (progesterone receptor)	withdrawal bleeding (start of spontaneous menstrual cycle), time after stopping the SPRM treatment ([1]; all subjects, latest occurrence)	resumption of menstruation, time after cessation of treatment ([1]; majority of subjects)
CN(C)c1ccc([C@H]2C[C@]3(C)[C@@H](CC[C@]3(O)CCCO)[C@@H]3CCC4=CC(=O)CCC4=C32)cc1 [onapristone]	do not show any agonist activity			
CC(=O)[C@H]1CC[C@H]2[C@@H]3CCC4=CC(=O)CC[C@]4(C)[C@H]3CC[C@]12C [progesterone]		4		
COC[C@]1(OC)CC[C@H]2[C@@H]3CCC4=CC(=O)CCC4=C3[C@@H](c3ccc(/C=N/O)cc3)C[C@@]21C [J867, 4-[17β-Methoxy-17α-(methoxymethyl)-3-oxoestra-4,9-dien-11β-yl]benzaldehyd-(1E)-oxim]			up to 90 days	≤ 30 days
CC#C[C@]1(O)CC[C@H]2[C@@H]3CCC4=CC(=O)CCC4=C3[C@@H](c3ccc(N(C)C)cc3)C[C@@]21C [RU486, mifepristone]	do not show any agonist activity	less than 0.5		
